Experimental data: patent US20230104477A1, “USE OF DEHYDROASCORBIC ACID AGAINST NEMATODE INFECTION IN PLANTS” (Universiteit Gent, priority 2019, published 2023)

What was measured:
rice seedlings = experiment: Evaluation of seedling growth after drenching rice seedlings; assay type: in vivo, Oryza sativa cv. Nipponbare
Experimental: (§1) Rice—Seeds of wild-type rice Oryza sativa cv. Nipponbare were obtained from USDA (GSOR-100). Seeds were germinated on wet filter paper for 4-5 days at 30° C. and seedlings were then transferred to SAP-substrate (Sand mixed with Absorbent Polymer AquaPerla®, DCM, Belgium) and further grown at 28° C., under a light regime of (day/night) 12/12. Hoagland solution was given as a source of nutrients 3 times a week.
(§2) Reduced Ascorbic acid (AA, 20 mM), dehydroascorbic acid (DHA, 20 mM), ascorbate oxidase (AO, 20 U/ml), methyl jasmonate (MeJA, 100 μM), aminooxyacetic acid (AoA, 12.5 mM), diethyldithiocarbamic acid (DIECA, 100 μM) and ethephon (100 μM) were purchased from Sigma and dissolved in water (except MeJA that was first dissolved in a drop of ETOH) to attain the indicated concentration.
3-days old rice seedlings were drenched with 1 mL of AA (20 mM), AO (20 U/mL), DHA (20 mM) or water (H2O) as a negative control. Rice root length and dry root weight as well as the number of embryonic crown roots (ECR) were measured 5 days after drenching.

[1] = test system: root-knot nematode Meloidogyne graminicola; experiment: Root growth in rice after foliar spray, nematode-infected conditions (tolerance); assay type: in vivo; conditions: 14-days old rice, foliar spray 20 mM, 250 nematodes per plant
Experimental: as §1
(§3) M. graminicola originally isolated in the Philippines (Batangas) was cultured on susceptible rice plants. Second stage juveniles (J2s) were extracted using a sieve/tray extraction method and inoculation was done as described in Nahar et al., (2011). For susceptibility assays, at least two independent experiments were carried out, each time including eight plants per treatment. Twelve days after inoculation (dai), roots were stained using acid fuchsine (Nahar et al., 2011) to count galls and number of nematodes in the roots.
as §2
(§4) For foliar application, all chemicals were dissolved in water and 0.02% (v/v) of Tween20 as a surfactant was added prior to spraying on aerial portions of the rice plants. Control plants were sprayed with distilled water containing 0.02% Tween20. Eight plants per treatment were sprayed until run-off with 6.5 mL of solution (at 24 h prior to nematode inoculation, in cases where infected plants were used). The substrate was covered to avoid direct contact with the roots and/or nematodes.

[2] = test system: root-knot nematode Meloidogyne graminicola; experiment: Susceptibility assay on rice plants, soil drench; assay type: in vivo; conditions: soil drench 24 h prior to inoculation (AA 20 mM, DHA 20 mM, AO 20 U/mL); twelve days after inoculation; vs control
Experimental: as §3, §2
For soil application, 6.5 mL of each solution was drenched on the substrate, 24 h prior to nematode inoculation.

rice plants = experiment: Root growth in rice after foliar spray, uninfected conditions; assay type: in vivo, Oryza sativa cv. Nipponbare; conditions: 14-days old rice, foliar spray 20 mM, 12 DAS, vs water control
Experimental: as §1, §2, §4

M. graminicola = experiment: Infection experiment with JA/ET mutant and biosynthesis inhibitors, foliar spray; assay type: in vivo, Meloidogyne graminicola; conditions: 12 days after inoculation
Experimental: as §3, §2, §4

[3] = test system: root-knot nematode M. graminicola; experiment: Susceptibility assay on rice plants, foliar spray; assay type: in vivo, Meloidogyne graminicola; conditions: foliar spray 24 h prior to inoculation (AA 20 mM, DHA 20 mM, AO 20 U/ml); 12 dai; vs control
Experimental: as §3, §2, §4

H2O2 = H2O2 measurements in roots (xylenol orange method); assay type: in vivo, rice; conditions: 20 mM DHA-pretreated plants upon M. graminicola infection, 1 dpi
Experimental: H2O2 measurements—14 days old rice plants were foliar sprayed with 20 mM DHA and 1 day later, plants were inoculated with Meloidogyne graminicola nematodes (Mg+) or mock inoculated (Mg−). One day after inoculation, samples were collected. Root samples were flash-frozen and ground under liquid nitrogen. Per sample, 100 mg of material was used to execute the xylenol orange method for H2O2 quantification described by Cheeseman (2006). After 5% trichloroacetic acid extraction, and 30 minutes reaction with the ferrous ammonium sulphate/xylenol orange (FOX) reagent, the absorbance was measured at 560 nm. The concentration was calculated by comparison with a standard curve of known H2O2 concentrations. The assay was done with 3 biological replicates, which each consisted of pooled material of 4 plants.

[4] = test system: Phenylalanine ammonia lyase (PAL); experiment: PAL activity measurements in treated rice plants; assay type: in vivo; conditions: 20 mM DHA foliar spray; for PAL-activity in galls in comparison with uninfected root tips: M. graminicola infected
Experimental: PAL activity measurements—14 days old rice plants were foliar sprayed with 20 mM DHA and 1 day later, plants were inoculated with Meloidogyne graminicola nematodes (Mg+) or mock inoculated (Mg−). Three or seven days after inoculation, samples were collected. Both galls and systemic tissue (shoots) were collected. Samples were flash-frozen and ground under liquid nitrogen. Per sample, 100 mg of material was used to execute PAL-activity measurement according to Camacho-Cristobal et al. (2002). PAL was assayed by measuring the formation of trans-cinnamic acid at 290 nm. Samples were dissolved in 800 μl of 50 mM sodium phosphate as assay buffer containing 2% (w/v) poly-vinylpolypyrrolidone (PVPP), 2 mM EDTA, 18 mM-mercaptoetanol and 0.1% (v/v) Triton X-100. The homogenate was centrifuged at 8000 rpm, 4° C. for 10 min. In different 2 ml tubes, 135 μl of reaction buffer, 50 μl of 5 mM of L-phenlyalanine, and 20 μl of supernatant were mixed and absorbance at 290 nm was measured before incubation at 40° C. for 30 minutes. Then, 10 μl of hydrochloric acid was added and measurement was again done at the same wavelength. The assay was done with 4 biological replicates, which each consisted of pooled material of 4 plants.

[5] = 3-days old rice seedlings drenched with 1 mL (AA 20 mM, DHA 20 mM, AO 20 U/ml), 5 days after drenching, vs water control

O=C1O[C@H]([C@@H](O)CO)C(=O)C1=O [DHA, (5R)-5-[(1S)-1,2-dihydroxyethyl]furan-2,3,4(5H)-trione]
dry root weight (rice seedlings; [5]): significantly higher
number of embryonic crown roots (ECR) (rice seedlings; [5]): significantly higher
root length (rice seedlings; [5]): significantly higher
general appearance of seedlings (rice seedlings; rice seedlings drenched with DHA 20 mM): looked more vigorous
root length ([1]; 8 DAS (7 days after inoculation)): most significant improved root length
root length ([1]; 12 DAS (11 days after inoculation)): most significant improved root length
number of galls [2]: significantly lower number of galls
number of nematodes [2]: lower number of nematodes
root length (rice plants): significantly longer roots
reduction in number of galls (M. graminicola; Osjarl (JA signalling) mutants sprayed with DHA 20 mM): 25-30%
reduction in number of galls (M. graminicola; wild-type Nipponbare sprayed with DHA 20 mM vs unsprayed wild-type): 50-70%
number of galls [3]: significantly lower number of galls
number of nematodes [3]: lower number of nematodes
H2O2 levels in roots (H2O2): induced
PAL-activity in systemic shoot tissues of infected versus uninfected plants ([4]; 3 dpi): strongly enhanced
PAL-activity in systemic shoot tissues of infected versus uninfected plants ([4]; 7 dpi): strongly enhanced
PAL-activity in galls in comparison with uninfected root tips ([4]; 3 dpi): strongly enhanced
PAL-activity in galls in comparison with uninfected root tips ([4]; 7 dpi): strongly enhanced
